Results reported in PubChem BioAssay (NCI).
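Where inhibition never reached the appropriate level, the endpoint shown equals the highest concentration tested. Otherwise, values were interpolated linearly from a five-concentration, 48-hour dose response in 96-well plates. Definition used: TGI = concentration required for complete inhibition of growth.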

Legend:
Assay in all cases: NCI-60 cell line screen, 48 h
[1] = system: SK-OV-3 ovarian
[2] = system: RXF 393 renal
[3] = system: K-562 leukemia
[4] = system: HCT-15 colon
[5] = system: MOLT-4 leukemia
[6] = system: UACC-257 melanoma
[7] = system: IGROV1 ovarian
[8] = system: SF-268 CNS
[9] = system: CCRF-CEM leukemia
[10] = system: RPMI-8226 leukemia
[11] = system: HS 578T breast
[12] = system: SN12C renal
[13] = system: BT-549 breast
[14] = system: OVCAR-3 ovarian
[15] = system: U251 CNS
[16] = system: NCI-H23 lung
[17] = system: DU-145 prostate
[18] = system: SK-MEL-28 melanoma
[19] = system: SNB-75 CNS
[20] = system: MCF7 breast
[21] = system: HCT-116 colon
[22] = system: SF-295 CNS
[23] = system: MDA-N
[24] = system: UO-31 renal
[25] = system: KM12 colon
[26] = system: T-47D breast
[27] = system: SNB-19 CNS
[28] = system: MALME-3M melanoma
[29] = system: 786-0 renal
[30] = system: HCC-2998 colon
[31] = system: OVCAR-4 ovarian
[32] = system: HT29 colon
[33] = system: MDA-MB-435
[34] = system: A549 NSCLC
[35] = system: ACHN renal
[36] = system: NCI-H460 lung
[37] = system: CAKI-1 renal
[38] = system: NCI-H226 lung
[39] = system: UACC-62 melanoma
[40] = system: M14 melanoma
[41] = system: SW-620 colon
[42] = system: MDA-MB-231 breast
[43] = system: SK-MEL-5 melanoma
[44] = system: EKVX NSCLC
[45] = system: HOP-62 NSCLC
[46] = system: OVCAR-5 ovarian
[47] = system: NCI/ADR-RES ovarian
[48] = system: PC-3 prostate
[49] = system: COLO 205 colon
[50] = system: OVCAR-8 ovarian
[51] = system: HL-60(TB) leukemia
[52] = system: TK-10 renal
[53] = system: A498 renal
[54] = system: SF-539 CNS
[55] = system: SR leukemia
[56] = system: HOP-92 NSCLC
[57] = system: NCI-H522 lung
[58] = system: LOX IMVI melanoma
[59] = system: SK-MEL-2 melanoma

Structure (SMILES): CN(C)CCN1C(=O)c2ccccc2C1(O)c1ccc(Cl)cc1 (stereo not drawn)
- TGI [1]: > 100 µM
- TGI [2]: 77.5 µM
- TGI [3]: > 100 µM
- TGI [4]: > 100 µM
- TGI [5]: > 100 µM
- TGI [6]: 63.9 µM
- TGI [7]: > 100 µM
- TGI [8]: > 100 µM
- TGI [9]: > 100 µM
- TGI [10]: > 100 µM
- TGI [11]: > 100 µM
- TGI [12]: > 100 µM
- TGI [13]: > 100 µM
- TGI [14]: > 100 µM
- TGI [15]: > 100 µM
- TGI [16]: > 100 µM
- TGI [17]: > 100 µM
- TGI [18]: > 100 µM
- TGI [19]: > 100 µM
- TGI [20]: > 100 µM
- TGI [21]: > 100 µM
- TGI [22]: > 100 µM
- TGI [23]: > 100 µM
- TGI [24]: > 100 µM
- TGI [25]: > 100 µM
- TGI [26]: > 100 µM
- TGI [27]: > 100 µM
- TGI [28]: 70.7 µM
- TGI [29]: > 100 µM
- TGI [30]: > 100 µM
- TGI [31]: > 100 µM
- TGI [32]: > 100 µM
- TGI [33]: > 100 µM
- TGI [34]: > 100 µM
- TGI [35]: > 100 µM
- TGI [36]: > 100 µM
- TGI [37]: > 100 µM
- TGI [38]: > 100 µM
- TGI [39]: > 100 µM
- TGI [40]: > 100 µM
- TGI [41]: > 100 µM
- TGI [42]: > 100 µM
- TGI [43]: 67.2 µM
- TGI [44]: > 100 µM
- TGI [45]: > 100 µM
- TGI [46]: > 100 µM
- TGI [47]: > 100 µM
- TGI [48]: > 100 µM
- TGI [49]: > 100 µM
- TGI [50]: > 100 µM
- TGI [51]: > 100 µM
- TGI [52]: > 100 µM

Structure (SMILES): O=c1[nH]c2ccsc2c(=O)n1COCc1ccccc1
- TGI [2]: > 100 µM
- TGI [3]: > 100 µM
- TGI [4]: > 100 µM
- TGI [5]: > 100 µM
- TGI [6]: > 100 µM
- TGI [53]: > 100 µM
- TGI [7]: > 100 µM
- TGI [8]: > 100 µM
- TGI [9]: > 100 µM
- TGI [54]: > 100 µM
- TGI [10]: > 100 µM
- TGI [11]: > 100 µM
- TGI [12]: > 100 µM
- TGI [13]: > 100 µM
- TGI [55]: > 100 µM
- TGI [14]: > 100 µM
- TGI [15]: > 100 µM
- TGI [16]: > 100 µM
- TGI [17]: > 100 µM
- TGI [18]: > 100 µM
- TGI [19]: > 100 µM
- TGI [20]: > 100 µM
- TGI [21]: > 100 µM
- TGI [22]: > 100 µM
- TGI [23]: > 100 µM
- TGI [24]: > 100 µM
- TGI [25]: > 100 µM
- TGI [27]: > 100 µM
- TGI [28]: > 100 µM
- TGI [56]: > 100 µM
- TGI [29]: > 100 µM
- TGI [30]: > 100 µM
- TGI [57]: > 100 µM
- TGI [58]: > 100 µM
- TGI [31]: > 100 µM
- TGI [32]: > 100 µM
- TGI [33]: > 100 µM
- TGI [34]: > 100 µM
- TGI [35]: > 100 µM
- TGI [36]: > 100 µM
- TGI [37]: > 100 µM
- TGI [38]: > 100 µM
- TGI [40]: > 100 µM
- TGI [59]: > 100 µM
- TGI [41]: > 100 µM
- TGI [42]: > 100 µM
- TGI [43]: > 100 µM
- TGI [44]: > 100 µM
- TGI [45]: > 100 µM
- TGI [46]: > 100 µM
- TGI [47]: > 100 µM
- TGI [48]: > 100 µM
- TGI [49]: > 100 µM
- TGI [50]: > 100 µM
- TGI [51]: > 100 µM
- TGI [52]: > 100 µM
